Test results taken from EP4740948A1 (Dong Wha Pharm. Co., Ltd., priority 2023, dated 2025).
Structures can show the parent of a compound that is named as a salt.

Experiments:
G401 cells = experiment: Cancer cell proliferation inhibition (Cell Counting Kit-8), rhabdoid tumor cell line; format: cell-based; conditions: 1000 nM, cultured seven to 11 days; for inhibition at 1 µM: Homo sapiens, G-401, 264 h, read-out: % inhibition rate G401
In short: (§1)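 Single 1000 nM dose of test substance, applied to cells seeded at 100–1,000 per well in 10% FBS medium, then culture for seven to 11 days. CCK-8 read-out; inhibition rate expressed as percent relative to untreated control.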

EZH2 = EZH2 (Homo sapiens, UniProt Q15910); experiment: AlphaLISA enzyme activity inhibition, EZH2; format: biochemical
In short: (§2)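 Enzyme inhibition rate was calculated relative to DMSO from AlphaLISA signal, with acceptor beads added after a 2 h methylation reaction and donor beads 1 h later. Each enzyme, EZH1 or EZH2, was pre-mixed with compound (final 5 nM or 10 nM) in Tris buffer pH 8.0 before histone H3 peptide and SAM initiated the reaction.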

EZH1 = EZH1 (Homo sapiens, UniProt Q92800); experiment: AlphaLISA enzyme activity inhibition, EZH1; format: biochemical; conditions: for inhibition at 0.005 µM: 5nM test substance
In short: as §2

SW-13 cells = experiment: Cancer cell proliferation inhibition (Cell Counting Kit-8), adrenal cancer cell line; format: cell-based; conditions: 1000 nM, cultured seven to 11 days; for inhibition at 1 µM: Homo sapiens, SW13, 264 h, read-out: % inhibition rate SW-13; for % inhibition rate SW-13: 1 µM
In short: (§3)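 Single-concentration test: 1000 nM compound, 7-11 day culture after seeding 100 to 1,000 cells per well in 10% FBS medium. Percent inhibition derived from Cell Counting Kit-8 signal relative to untreated control.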

Lovo cells = experiment: Cancer cell proliferation inhibition (Cell Counting Kit-8), colorectal cancer cell line; format: cell-based; conditions: 1000 nM, cultured seven to 11 days; for inhibition at 1 µM: Homo sapiens, LoVo, 264 h, read-out: % inhibition rate LoVo
In short: as §3

NCI-H1299 cells = experiment: Cancer cell proliferation inhibition (Cell Counting Kit-8), lung cancer cell line; format: cell-based; conditions: 1000 nM, cultured seven to 11 days; for inhibition at 1 µM: Homo sapiens, NCI-H1299, 264 h, read-out: % inhibition rate NCI-H129 9
In short: as §3

MIA-PaCa-2 cells = experiment: Cancer cell proliferation inhibition (Cell Counting Kit-8), pancreatic cancer cell line; format: cell-based; conditions: 1000 nM, cultured seven to 11 days; for inhibition at 1 µM: Homo sapiens, MIA PaCa-2, 264 h, read-out: % inhibition rate MIA-Paca2; for % inhibition rate MIA-Paca2: 1 µM
In short: as §3

MKN-45 cells = experiment: Cancer cell proliferation inhibition (Cell Counting Kit-8), gastric cancer cell line; format: cell-based; conditions: 1000 nM, cultured seven to 11 days; for inhibition at 1 µM: Homo sapiens, MKN-45, 264 h, read-out: % inhibition rate MKN -45; for % inhibition rate MKN -45: 1 µM
In short: as §1

Chain of EZH2 (Q15910 whole entry, species assumed): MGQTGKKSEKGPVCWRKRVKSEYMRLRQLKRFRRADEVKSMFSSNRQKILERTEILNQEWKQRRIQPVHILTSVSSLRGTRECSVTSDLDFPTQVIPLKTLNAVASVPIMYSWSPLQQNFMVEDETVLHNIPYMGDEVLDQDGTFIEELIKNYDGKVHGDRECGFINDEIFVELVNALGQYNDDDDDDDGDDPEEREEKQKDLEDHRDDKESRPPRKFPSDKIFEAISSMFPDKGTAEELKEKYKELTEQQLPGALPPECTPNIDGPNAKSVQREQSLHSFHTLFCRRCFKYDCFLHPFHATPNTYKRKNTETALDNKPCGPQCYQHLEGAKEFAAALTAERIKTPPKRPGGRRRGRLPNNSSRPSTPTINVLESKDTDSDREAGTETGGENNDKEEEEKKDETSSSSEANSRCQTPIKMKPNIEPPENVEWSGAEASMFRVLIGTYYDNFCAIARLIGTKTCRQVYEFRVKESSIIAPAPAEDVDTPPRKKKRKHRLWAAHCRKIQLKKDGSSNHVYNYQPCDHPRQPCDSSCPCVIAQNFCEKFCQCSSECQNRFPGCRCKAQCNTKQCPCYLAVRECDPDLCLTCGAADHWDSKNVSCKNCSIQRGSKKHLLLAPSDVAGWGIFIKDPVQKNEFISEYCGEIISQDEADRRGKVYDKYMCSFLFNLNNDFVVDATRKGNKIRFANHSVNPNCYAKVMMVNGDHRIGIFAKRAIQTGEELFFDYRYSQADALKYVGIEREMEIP
Chain of EZH2 (O75530 whole entry partner, species assumed): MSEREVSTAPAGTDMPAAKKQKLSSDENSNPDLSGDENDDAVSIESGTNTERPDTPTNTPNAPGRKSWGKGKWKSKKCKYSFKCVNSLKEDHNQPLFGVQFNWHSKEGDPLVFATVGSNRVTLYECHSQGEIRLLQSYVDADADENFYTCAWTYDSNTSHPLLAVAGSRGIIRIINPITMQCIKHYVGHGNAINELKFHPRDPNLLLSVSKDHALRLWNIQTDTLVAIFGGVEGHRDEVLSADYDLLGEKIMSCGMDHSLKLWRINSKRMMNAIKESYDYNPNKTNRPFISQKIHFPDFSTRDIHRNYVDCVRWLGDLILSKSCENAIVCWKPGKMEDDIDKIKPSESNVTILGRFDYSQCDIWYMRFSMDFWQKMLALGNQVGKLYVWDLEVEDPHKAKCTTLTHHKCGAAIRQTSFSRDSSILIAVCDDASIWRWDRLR
Chain of EZH2 (Q15022 whole entry partner, species assumed): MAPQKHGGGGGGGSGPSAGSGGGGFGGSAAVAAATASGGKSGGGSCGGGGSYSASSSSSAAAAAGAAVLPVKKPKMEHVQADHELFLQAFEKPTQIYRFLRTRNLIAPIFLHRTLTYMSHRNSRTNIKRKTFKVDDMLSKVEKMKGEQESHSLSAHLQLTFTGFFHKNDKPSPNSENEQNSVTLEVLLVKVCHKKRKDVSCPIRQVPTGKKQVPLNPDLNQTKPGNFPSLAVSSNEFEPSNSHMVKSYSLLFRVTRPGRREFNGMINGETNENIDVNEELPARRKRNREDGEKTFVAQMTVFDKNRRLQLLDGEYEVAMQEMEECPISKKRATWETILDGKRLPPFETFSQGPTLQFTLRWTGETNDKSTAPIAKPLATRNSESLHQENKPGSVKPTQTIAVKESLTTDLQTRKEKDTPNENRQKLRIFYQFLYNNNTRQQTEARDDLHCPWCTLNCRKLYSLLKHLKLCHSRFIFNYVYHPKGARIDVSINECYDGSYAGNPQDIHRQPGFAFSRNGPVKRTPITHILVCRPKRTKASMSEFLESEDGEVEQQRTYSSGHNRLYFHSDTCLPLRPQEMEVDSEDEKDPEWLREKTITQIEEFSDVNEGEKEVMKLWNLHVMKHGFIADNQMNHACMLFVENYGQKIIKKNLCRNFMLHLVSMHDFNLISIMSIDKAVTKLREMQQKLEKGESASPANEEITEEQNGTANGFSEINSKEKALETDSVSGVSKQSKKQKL
Chain of EZH1 (Q92800 whole entry, species assumed): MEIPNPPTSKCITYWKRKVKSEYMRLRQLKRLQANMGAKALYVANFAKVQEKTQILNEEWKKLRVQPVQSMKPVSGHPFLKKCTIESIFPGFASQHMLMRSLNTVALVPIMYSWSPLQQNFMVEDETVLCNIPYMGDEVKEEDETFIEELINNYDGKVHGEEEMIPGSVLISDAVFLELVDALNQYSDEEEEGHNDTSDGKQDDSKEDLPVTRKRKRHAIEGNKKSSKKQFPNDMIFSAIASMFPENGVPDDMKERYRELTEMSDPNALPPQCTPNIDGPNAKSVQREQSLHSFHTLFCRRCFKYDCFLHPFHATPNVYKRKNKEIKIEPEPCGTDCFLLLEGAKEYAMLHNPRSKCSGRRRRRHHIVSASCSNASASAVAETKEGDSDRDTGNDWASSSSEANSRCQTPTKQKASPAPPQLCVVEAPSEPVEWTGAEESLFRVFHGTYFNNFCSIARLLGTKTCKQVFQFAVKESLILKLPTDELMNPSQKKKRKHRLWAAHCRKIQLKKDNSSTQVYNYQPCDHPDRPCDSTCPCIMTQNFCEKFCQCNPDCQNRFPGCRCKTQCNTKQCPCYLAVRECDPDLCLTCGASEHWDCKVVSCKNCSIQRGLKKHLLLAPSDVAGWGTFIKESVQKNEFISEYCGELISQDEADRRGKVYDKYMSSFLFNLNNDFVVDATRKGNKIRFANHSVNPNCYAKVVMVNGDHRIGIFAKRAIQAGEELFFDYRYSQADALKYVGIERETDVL
Chain of EZH1 (O75530 whole entry partner, species assumed): as the sequence (O75530 whole entry partner, species assumed) above
Chain of EZH1 (Q15022 whole entry partner, species assumed): as the sequence (Q15022 whole entry partner, species assumed) above

| inhibition at 0.005 µM (EZH2; 5nM test substance) [%] | inhibition at 0.01 µM (EZH2; 10nM test substance) [%] | inhibition at 0.005 µM (EZH1) [%] | inhibition at 0.01 µM (EZH1; 10nM test substance) [%] | Enzyme inhibition % EZH2 (EZH2; 5nM test substance, 0.005 µM) [%] | Enzyme inhibition % EZH2 (EZH2; 10nM test substance, 0.01 µM) [%] | Enzyme inhibition % EZH1 (EZH1; 10nM test substance, 0.01 µM) [%] | Structure (SMILES) | inhibition at 1 µM (G401 cells) [%] | inhibition at 1 µM (SW-13 cells) [%] | inhibition at 1 µM (Lovo cells) [%] | inhibition at 1 µM (NCI-H1299 cells) [%] | inhibition at 1 µM (MIA-PaCa-2 cells) [%] | inhibition at 1 µM (MKN-45 cells) [%] | % inhibition rate SW-13 (SW-13 cells) | % inhibition rate MIA-Paca2 (MIA-PaCa-2 cells) | % inhibition rate MKN -45 (MKN-45 cells) | % inhibition rate G401 (G401 cells) | % inhibition rate LoVo (Lovo cells) | % inhibition rate NCI-H129 9 (NCI-H1299 cells) |
| --- | --- | --- | --- | --- | --- | --- | --- | --- | --- | --- | --- | --- | --- | --- | --- | --- | --- | --- | --- |
| 98.7 | 100 | 38.8 | 78.1 | – | – | – | CSc1cc(C)[nH]c(=O)c1CNC(=O)c1cc(-c2ccc(N3C[C@@H](C)O[C@@H](C)C3)nc2)c2c(c1C)OC(C)([C@H]1CC[C@H](N3CC(O)C3)CC1)O2 (stereo partly drawn) [Compound 101, 7-(6-((2S,6R)-2,6-dimethylmorpholino)pyridin-3-yl)-2-(trans-4-(3-hydroxyazetidin-1-yl)cyclohexyl)-2,4-dimethyl-N-((6-methyl-4-(methylthio)-2-oxo-1,2-dihydropyridin-3-yl)methyl)benzo[d][1,3]dioxole-5-carboxamide] | ≥ 70 | 30 to 70 | 30 to 70 | ≤ 30 | ≤ 30 | ≤ 30 | – | – | – | – | – | – |
| 27.1 | 72.5 | 10.7 | 20.5 | – | – | – | CSc1cc(C)[nH]c(=O)c1CNC(=O)c1cc(-c2ccc(N3C[C@@H](C)O[C@@H](C)C3)nc2)c2c(c1C)OC(C)([C@H]1CC[C@H](N3CC(OCC(F)F)C3)CC1)O2 (stereo partly drawn) [Compound 103, 2-(trans-4-(3-(2,2-difluoroethoxy)azetidin-1-yl)cyclohexyl)-7-(6-((2S,6R)-2,6-dimethylmorpholino)pyridin-3-yl)-2,4-dimethyl-N-((6-methyl-4-(methylthio)-2-oxo-1,2-dihydropyridin-3-yl)methyl)benzo[d][1,3]dioxole-5-carboxamide] | ≥ 70 | – | ≥ 70 | ≤ 30 | – | – | +++ (+++: ≥70%) | +++ (+++: ≥70%) | +++ (+++: ≥70%) | – | – | – |
| – | – | – | – | 37.0 | 82.6 | 19.9 | CSc1cc(C)[nH]c(=O)c1CNC(=O)c1cc(-c2ccc(N3C[C@@H](C)O[C@@H](C)C3)nc2)c2c(c1C)OC(C)([C@H]1CC[C@H](N3CC(OCC(F)F)C3)CC1)O2 (stereo partly drawn) [Compound 104, 2-(trans-4-(3-(2,2-difluoroethoxy)azetidin-1-yl)cyclohexyl)-7-(6-((2S,6R)-2,6-dimethylmorpholino)pyridin-3-yl)-2,4-dimethyl-N-((6-methyl-4-(methylthio)-2-oxo-1,2-dihydropyridin-3-yl)methyl)benzo[d][1,3]dioxole-5-carboxamide] | – | – | – | – | – | – | ++ (++: more than 30% and less than 70%) | + (+: ≤30%) | ++ (++: more than 30% and less than 70%) | +++ (+++: ≥70%) | +++ (+++: ≥70%) | + (+: ≤30%) |
| 90.6 | 99.9 | 34.2 | 69.1 | – | – | – | COC1CN([C@H]2CC[C@H](C3(C)Oc4c(-c5ccc(N6C[C@@H](C)O[C@@H](C)C6)nc5)cc(C(=O)NCc5c(SC)cc(C)[nH]c5=O)c(C)c4O3)CC2)C1 (stereo partly drawn) [Compound 106, 7-(6-((2S,6R)-2,6-dimethylmorpholino)pyridin-3-yl)-2-(trans-4-(3-methoxyazetidin-1-yl)cyclohexyl)-2,4-dimethyl-N-((6-methyl-4-(methylthio)-2-oxo-1,2-dihydropyridin-3-yl)methyl)benzo[d][1,3]dioxole-5-carboxamide] | ≥ 70 | 30 to 70 | ≥ 70 | 30 to 70 | ≤ 30 | ≤ 30 | – | – | – | – | – | – |
| 52.4 | 91.6 | 22 | 35.2 | – | – | – | CSc1cc(C)[nH]c(=O)c1CNC(=O)c1cc(-c2ccc(N3C[C@@H](C)O[C@@H](C)C3)nc2)c2c(c1C)OC(C)([C@H]1CC[C@H](N(C)CC(F)F)CC1)O2 (some centres unmarked) [Compound 109] | ≥ 70 | 30 to 70 | ≥ 70 | ≤ 30 | ≤ 30 | 30 to 70 | – | – | – | – | – | – |

Second part, the compound before the results:

| Structure (SMILES) | inhibition at 0.005 µM (EZH2; 5nM test substance) [%] | inhibition at 0.01 µM (EZH2; 10nM test substance) [%] | inhibition at 0.005 µM (EZH1) [%] | inhibition at 0.01 µM (EZH1; 10nM test substance) [%] | Enzyme inhibition % EZH2 (EZH2; 5nM test substance, 0.005 µM) [%] | Enzyme inhibition % EZH2 (EZH2; 10nM test substance, 0.01 µM) [%] | Enzyme inhibition % EZH1 (EZH1; 10nM test substance, 0.01 µM) [%] | inhibition at 1 µM (G401 cells) [%] | inhibition at 1 µM (SW-13 cells) [%] | inhibition at 1 µM (Lovo cells) [%] | inhibition at 1 µM (NCI-H1299 cells) [%] | inhibition at 1 µM (MIA-PaCa-2 cells) [%] | inhibition at 1 µM (MKN-45 cells) [%] | % inhibition rate SW-13 (SW-13 cells) | % inhibition rate MIA-Paca2 (MIA-PaCa-2 cells) | % inhibition rate MKN -45 (MKN-45 cells) | % inhibition rate G401 (G401 cells) | % inhibition rate LoVo (Lovo cells) | % inhibition rate NCI-H129 9 (NCI-H1299 cells) |
| --- | --- | --- | --- | --- | --- | --- | --- | --- | --- | --- | --- | --- | --- | --- | --- | --- | --- | --- | --- |
| CSc1cc(C)[nH]c(=O)c1CNC(=O)c1cc(-c2ccc(N3C[C@@H](C)O[C@@H](C)C3)nc2)c2c(c1C)OC(C)([C@H]1CC[C@H](N)CC1)O2 (stereo partly drawn) [Compound 100, 2-(trans-4-aminocyclohexyl)-7-(6-((2S,6R)-2,6-dimethylmorpholino)pyridin-3-yl)-2,4-dimethyl-N-((6-methyl-4-(methylthio)-2-oxo-1,2-dihydropyridin-3-yl)methyl)benzo[d][1,3]dioxole-5-carboxamide hydrochloride] | 96.3 | 100 | 30 | 68.1 | – | – | – | ≥ 70 | 30 to 70 | ≤ 30 | ≤ 30 | ≤ 30 | 30 to 70 | – | – | – | – | – | – |
| CSc1cc(C)[nH]c(=O)c1CNC(=O)c1cc(-c2ccc(N3C[C@@H](C)O[C@@H](C)C3)nc2)c2c(c1C)OC(C)([C@H]1CC[C@H](N(C)C(C)C)CC1)O2 (stereo partly drawn) [Compound 110, 7-(6-((2S,6R)-2,6-dimethylmorpholino)pyridin-3-yl)-2-(trans-4-(isopropyl(methyl)amino)cyclohexyl)-2,4-dimethyl-N-((6-methyl-4-(methylthio)-2-oxo-1,2-dihydropyridin-3-yl)methyl)benzo[d][1,3]dioxole-5-carboxamide] | 99.8 | 100 | 52 | 91.9 | – | – | – | ≥ 70 | 30 to 70 | ≥ 70 | ≤ 30 | ≤ 30 | ≤ 30 | – | – | – | – | – | – |
| CCN(C)[C@H]1CC[C@H](C2(C)Oc3c(-c4ccc(N5C[C@@H](C)O[C@@H](C)C5)nc4)cc(C(=O)NCc4c(SC)cc(C)[nH]c4=O)c(C)c3O2)CC1 (stereo partly drawn) [Compound 111, 7-(6-((2S,6R)-2,6-dimethylmorpholino)pyridin-3-yl)-2-(trans-4-(ethyl(methyl)amino)cyclohexyl)-2,4-dimethyl-N-((6-methyl-4-(methylthio)-2-oxo-1,2-dihydropyridin-3-yl)methyl)benzo[d][1,3]dioxole-5-carboxamide] | 86.7 | 100 | 28.1 | 62.1 | – | – | – | ≥ 70 | 30 to 70 | ≥ 70 | ≤ 30 | ≤ 30 | ≤ 30 | – | – | – | – | – | – |
| CSc1cc(C)[nH]c(=O)c1CNC(=O)c1cc(-c2ccc(N3C[C@@H](C)O[C@@H](C)C3)nc2)c2c(c1C)OC(C)([C@H]1CC[C@H](N(C)CCc3ccccc3)CC1)O2 (stereo partly drawn) [Compound 112, 7-(6-((2S,6R)-2,6-dimethylmorpholino)pyridin-3-yl)-2,4-dimethyl-2-(trans-4-(methyl(phenethyl)amino)cyclohexyl)-N-((6-methyl-4-(methylthio)-2-oxo-1,2-dihydropyridin-3-yl)methyl)benzo[d][1,3]dioxole-5-carboxamide] | 58.5 | 97 | 24.3 | 40.7 | – | – | – | ≥ 70 | 30 to 70 | ≥ 70 | ≤ 30 | ≤ 30 | 30 to 70 | – | – | – | – | – | – |
